The nature of data set [1]: Amorphous or crystalline state by powder X-ray diffraction (XRPD). The data set is classed as physicochemical. The note with it: for XRPD 1 week 40/75 open: 1 week 40° C. 75% RH open; for XRPD initial: freshly prepared. As for the experimental part:
Amorphous or crystalline state of freshly prepared spray dried dispersions described in Example 2 was assessed by Powder X-ray diffraction (XRPD). The same analysis was repeated after 1 week storage at 40° C. and 75% relative humidity in open conditions. XRPD patterns were obtained with Rigaku MiniFlex 600 X-Ray diffractometer operating with a copper anode ([…]; Kα2=1.54439 Å), generator set at 45 kV and 15 mA, in 2-theta range 3-40° 2θ, scanned at a rate of 2.5° 2θ per minute in continuous scanning mode, and using a D/teX Ultra high speed detector.

The nature of data set [2]: Chemical stability: impurities by HPLC, initial and after 1 week 40° C./75% RH. Format: physicochemical. As for the experimental part:
After a secondary drying overnight at 40° C. 15% RH in a convection tray dryer, the different ASD were characterized for physical stability (XRPD, Tg versus Relative humidity), chemical stability (impurity by HPLC after 1 week 40° C./75% RH) and in vitro dissolution.
Purity of each batch of ASD was tested by HPLC analysis on sample just after preparation and after one week storage in accelerated stability conditions: 40° C./75% RH open or closed. In closed conditions, ASDs were placed in closed bottles (heat induction seal) containing 1 g SORB-IT desiccant canister.
HPLC-analysis was performed using an Agilent 1100 or 1200 system with binary or quaternary pump, a diode array detector, a refrigerated autosampler, and column oven. Data analysis was performed using Empower 3 software. The column used was Zorbax Bonus RP 4.6×150 mm (3.5 μm). Acetonitrile/20 mM Potassium phosphate buffer pH 3.0 was used as mobile phase with a gradient concentration at a flow rate of 1.0 mL/min; UV detection was used at a wavelength of 220 nm.

Data set [3] is described as follows: Non-sink in vitro dissolution, micro-centrifuge method. The data set is classed as physicochemical. The note with it: PBS pH 6.5 with 0.5 wt % SIF; for Dissolution C90 min / Dissolution C20 h: 37° C., theoretical maximum 1000 μg/mL; for Dissolution C90 min: 90 min; for Dissolution C20 h: 1200 min. As for the experimental part: Dissolution of spray dried materials of belinostat has been tested in vitro, in non-sink conditions, in order to evaluate the ability of formulations to achieve supersaturation and sustainability of supersaturation relative to crystalline drug.
Dissolution was assessed using micro-centrifuge method (Curatolo et al. Pharm Res 2009:26(6):1419-1431). Micro-centrifuge dissolution method consisted of introducing a 1.8 mg equivalent belinostat as ASD into an empty micro-centrifuge tube and add 1.8 mL total volume dissolution media (PBS pH 6.5 with 0.5 wt % Simulated Intestinal Fluid) to achieve a theoretical maximum belinostat concentration in solution of 1000 μg/mL. For some formulations (marked with* in Table 2), ASDs were first exposed in pH 2.0 gastric media at 2000 μg/mL for 30 min before to be transferred to the PBS pH 6.5 with 0.5 wt % Simulated Intestinal Fluid at a final theoretical maximum belinostat concentration in solution of 1000 μg/mL. Tubes were placed at 37° C. Aliquot (50 μL) were taken from supernatant after centrifugation 15 800 g for 1 min at each time point (5, 10, 20, 45, 90 and 1200 minutes). Between each time point, solids in the centrifuge tube were resuspended by mixing the sample continuously on the vortex mixer for 30 s and the tube was placed back at 37° C. Aliquot samples were diluted using acetonitrile and drug concentration was determined by HPLC.

The conditions of data set [4]: vorinostat: phase I trial; cited from earlier work.
For data set [5] the following is noted: cited from earlier work.
For data set [6] the following is noted: cited from earlier work. The source holds these as a separate data set.
Data set [7] can be described thus: Glass transition temperature (Tg) by modulated DSC. Format: physicochemical. How it is done: To also evaluate the physical stability of prepared ASDs, glass transition temperature (Tg) was determined at two relative humidity (RH) conditions (<5% and 75% RH) by modulated differential scanning calorimetry (m-DSC).
DSC curves were recorded using a TA Instruments Q2000 differential scanning calorimeter. Samples were heated under nitrogen flow from 0 to 200° C. at 2.5° C.±1.5° C./min in non-hermetically sealed pan for <5% RH analysis or from 0 to 130° C. at 2.5° C.±1.5° C./80 sec in hermetically sealed pan for 75% RH analysis.

For data set [8] the following is noted: above pH 8.5; cited from earlier work.
[9] abbreviates: 1 week 40° C./75% RH closed, desiccant.

Here are results for 5 compounds from patent US11266614B2, “Oral formulations of belinostat” (ONXEO, priority 2017, dated 2022).

Molecules are shown by their SMILES.

Regarding `O=C(/C=C/c1cccc(S(=O)(=O)Nc2ccccc2)c1)NO` [Formulation 1], in data set [1], the “XRPD 1 week 40/75 open” value is recorded as “Crystalline” and the XRPD initial entry is “Crystalline”. Further, in data set [2] (just after preparation), the “Bel Acid, Initial” value is listed as “Bel Acid <0.05 area %” and the “Total imp, Initial” value was “Total imp <0.05 area %”. Also, in data set [3], the “Dissolution C90 min” value was 270 µg/mL and the “Dissolution C20 h” value is 310 µg/mL.
Turning to `O=C(CCCCCCC(=O)Nc1ccccc1)NO` [Vorinostat], in data set [4], the absolute oral bioavailability is on record as 43%. The “permeability (in words)” value in data set [5] was “moderate permeability”.
Take `CC(O)C(=O)O.Cc1[nH]c2ccccc2c1CCNCc1ccc(/C=C/C(=O)NO)cc1` [panobinostat lactate]: in data set [6] (pH 2 or 3), the “aqueous solubility, maximum” value is around 5000 µg/mL. In data set [6] (pH 6.8), the “aqueous solubility at neutral pH” value is 0.3 mg/mL. For the same compound, the aqueous solubility in data set [6] (pH 7.6) is 70 µg/mL. Moreover, in data set [6] (water), the “solubility in water (in words)” value was “slightly soluble in water”. Moreover, the absolute oral bioavailability result in data set [4] is “approximately 21%”. Moreover, in data set [5], the “permeability (in words)” value is on record as “highly permeable”.
Consider `O=C(/C=C/c1cccc(S(=O)(=O)Nc2ccccc2)c1)NO` [Formulation 2], for which, in data set [1], the “XRPD 1 week 40/75 open” value was “Crystalline” and the XRPD initial result is recorded as “Partially crystalline”. Further, the “physical state upon storage (in words)” value in data set [1] (upon storage) is “undergoes recrystallization upon storage”. Also, the “Tg <5% RH” value in data set [7] (<5% RH, m-DSC) came out at 53 °C. Further, the “glass transition temperature (Tg)” value in data set [7] (amorphous belinostat without polymer) is “about 53 °C”. Further, in data set [2] (setting [9]), the “Bel Acid, 1 week 40/75 closed” value is “Bel Acid 0.10 area %”; the “Bel Dimer, 1 week 40/75 closed” value is listed as “Bel Dimer 1.34 area %”; the “Total imp, 1 week 40/75 closed” value was “Total imp 1.49 area %”. In addition, in data set [2] (1 week 40° C./75% RH open), the “Bel Acid, 1 week 40/75 open” value is “Bel Acid 0.10 area %”; the “Bel Dimer, 1 week 40/75 open” value is on record as “Bel Dimer 0.25 area %”; the “Observation on storage 1 week 40/75 open” value was “Recrystallization”; the “Total imp, 1 week 40/75 open” value is recorded as “Total imp 0.42 area %”. In addition, in data set [2] (just after preparation), the “Bel Acid, Initial” value is “Bel Acid 0.05 area %”; the “Bel Dimer, Initial” value was “Bel Dimer 0.48 area %”; the “Total imp, Initial” value is reported as “Total imp 0.59 area %”. In data set [3], the Observation during dissolution entry is “Recrystallization”, the “Dissolution C90 min” value turned out to be 363 µg/mL and the “Dissolution C20 h” value is 387 µg/mL.
Turning to `O=C(/C=C/c1cccc(S(=O)(=O)Nc2ccccc2)c1)NO` [belinostat, (2E)-N-hydroxy-3-[3-(phenylsulfamoyl)phenyl]prop-2-enamide], the “chemical stability in liquid solution” value in data set [8] is reported as “poor chemical stability”.
